The source of these data is patent US8754079B2, “Cycloalkyl containing thienopyrimidines for pharmaceutical compositions” (Boehringer Ingelheim International GmbH, priority 2010, dated 2014).

This experiment has as its target T1, MNK2 (Homo sapiens, UniProt Q9HBH9).
T1 construct: the open reading frames of human Mnk1 and Mnk2a were amplified from cDNA; made in house; host or cells: E. coli BL21
As to the kind of experiment: Mnk2a in vitro kinase assay (indirect fluorescence polarization). The following applies: pre-activated GST-Mnk2a 2.5 nM, 20 μM ATP, 30 μM substrate peptide. In kind it is biochemical. The method, then: Inhibitory potency of compounds against Mnk1, Mnk2a and other kinases was assessed with assays based on a format known to those skilled in the art as the indirect (competitive) fluorescence polarization. The assay detection system comprises a small fluorophore-labeled phospho-peptide (termed ligand) bound to a phospho-specific antibody. The product generated by the kinase reaction competes with the ligand for antibody binding. Based on the larger molecular volume of the bound ligand, which results in a lower rotation rate in solution, its emitted light has a higher degree of polarization than the one from the free ligand.
Example 2a. Mnk1 and Mnk2a in vitro kinase assay
As a source of enzyme, human Mnk1 and human Mnk2a were expressed as GST fusion proteins in E. coli, purified to >80% homogeneity by glutathione affinity chromatography and activated in vitro with pre-activated ERK2. In brief, the open reading frames of human Mnk1 and Mnk2a were amplified from cDNA using the forward/reverse primer pairs
(utilized restriction sites underlined), respectively, and cloned into the BamHI and SalI sites of the vector pGEX-4T1 (Amersham, Sweden, cat. no. 27-4580-01). These constructs allow prokaryotic expression of Mnk1 or Mnk2a as fusion protein with a N-terminal glutathione S-transferase (GST) tag, referred to as GST-Mnk1 or GSTMnk2a. The following expression and purification procedure was identical for GSTMnk1 and GST-Mnk2a, referring in general to GST-Mnk, when not distinguishing between the two isoforms. Expression of GST-Mnk was in E. coli BL21 (Merck Biosciences, Germany, cat. no. 69449). Cells were grown in LB-Bouillon (Merck, Germany, cat. no. 1.10285) supplemented with 100 μg/ml ampicillin (Sigma, Germany, cat. no. A9518) at 37° C. When the culture had reached a density corresponding to an A600 of 0.8, an equal volume of ice cold LB/ampicillin was added, the culture transferred to 25° C. and induced for 4 h with 1 mM isopropyl thiogalactoside (IPTG, Roth, Germany, cat. no. 2316.4). Cells harvested by centrifugation were resuspended in 10 ml lysis buffer (50 mM tris(hydroxymethyl)aminomethane hydrochloride (Tris/HCl, Sigma, Germany, cat. no. T5941) pH 7.5, 300 mM sodium chloride (NaCl, Sigma, Germany, cat. no. S7653), 5% (w/v) glycerol (Sigma, Germany, cat. no. G5516), 3 mM DTT dithiotreitol (DTT, Sigma, Germany, cat. no. D9779)) per gram wet weight cell pellet. Lysates were prepared by disruption of cells with a sonifier and subsequent clearing by centrifugation at 38000 g for 45 min at 4° C.
The lysate was applied to a GSTPrep FF 16/10 column (Amersham, Sweden, cat. no. 17-5234-01) equilibrated with lysis buffer. Removal of unbound material was with 3 column volumes (CV) lysis buffer. Elution was with 2 CV of elution buffer (50 mM Tris/HCl pH 7.5, 300 mM NaCl, 5% (w/v) glycerol, 20 mM glutathione (Sigma, Germany, cat. no. G4251)). Peak fractions were pooled and the protein transferred into storage buffer (50 mM Tris/HCl pH 7.5, 200 mM NaCl, 0.1 mM ethylene glycolbis(2-aminoethylether)-N,N,N′,N′-tetraacetic acid (EGTA, Aldrich, Germany, cat. no. 23, 453-2), 1 mM DTT, 10% (w/v) glycerol, 0.5 M sucrose (Sigma, Germany, cat. no. S0389) by gel filtration on a PD10 desalting column (Amersham, Sweden, cat. no. 17-0851-01). Aliquots were shock frozen in liquid nitrogen and stored at −80° C.
Activation of Mnk1 and Mnk2a was at a concentration of 2.5 μM of either purified GST-Mnk1 or GST-Mnk2a by incubation with 150 nM pre-activated NHis-ERK2 (see ERK2 assay for preparation) and 50 μM adenosine triphosphate (ATP, Sigma, cat. no. A2699) in a buffer comprising 20 mM N-(2-hydroxyethyl)piperazine-N′-(2-ethanesulfonic acid) (HEPES, Fluka, Germany, cat. no 54459)/potassium hydroxide (KOH, Roth, Germany, cat. no 6751.1) pH 7.4, 10 mM magnesium chloride (MgCl2, Sigma, Germany, cat. no. M2670), 0.25 mM DTT, 0.05% (w/v) polyoxyethylene 20 stearylether (Brij 78, Sigma, Germany, cat. no. P4019) (HMDB buffer) for 45 min at 30° C. […]

T1 sequence (Q9HBH9 whole entry): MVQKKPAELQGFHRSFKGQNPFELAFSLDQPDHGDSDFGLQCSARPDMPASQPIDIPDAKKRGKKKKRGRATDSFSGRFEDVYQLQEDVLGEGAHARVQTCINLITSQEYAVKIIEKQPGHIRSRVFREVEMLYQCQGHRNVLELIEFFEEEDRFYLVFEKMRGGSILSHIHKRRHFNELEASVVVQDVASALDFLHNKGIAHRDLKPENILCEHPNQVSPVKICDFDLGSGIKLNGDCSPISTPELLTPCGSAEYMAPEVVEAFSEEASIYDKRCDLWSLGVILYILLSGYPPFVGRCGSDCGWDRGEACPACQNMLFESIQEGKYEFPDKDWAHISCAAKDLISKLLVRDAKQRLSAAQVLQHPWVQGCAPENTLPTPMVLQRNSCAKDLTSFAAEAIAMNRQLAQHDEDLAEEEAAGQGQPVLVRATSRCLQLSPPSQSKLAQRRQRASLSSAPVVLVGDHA

For orientation: IC50 means the concentration that inhibits the measured activity by half. For `CO[C@@H]1CCC[C@@H](Oc2cc(F)ccc2Nc2ncnc3sc(C(=O)NCc4cnco4)c(C)c23)C1` (racemic) [Example 82], the half-maximal inhibitory concentration (IC50) turned out to be 44 nM.
The value for `CO[C@@H]1CCC[C@@H](Oc2cc(F)ccc2Nc2ncnc3sc(C(=O)NCCCN(C)C)c(C)c23)C1` (racemic) [Example 88] was 61 nM.
With `CO[C@H]1CCC[C@@H](Oc2cc(F)ccc2Nc2ncnc3sc(C(N)=O)c(C)c23)C1` (racemic) [Example 89, Racemic 4-[4-Fluoro-2-((cis)-3-methoxy-cyclohexyloxy)-phenylamino]-5-methyl-thieno[2,3-d]pyrimidine-6-carboxylic acid amide], the 50% inhibitory concentration (IC50) is 8 nM.
The value for `CO[C@H]1CCC[C@@H](Oc2cc(F)ccc2Nc2ncnc3sc(C(=O)NCC#CCN)c(C)c23)C1` (racemic) [Example 91] was 16 nM; that for `CO[C@H]1CCC[C@@H](Oc2cc(F)ccc2Nc2ncnc3sc(C(=O)NCCCCO)c(C)c23)C1` (racemic) [Example 92] was 36 nM; that for `CO[C@H]1CCC[C@@H](Oc2cc(F)ccc2Nc2ncnc3sc(C(=O)NCc4cnco4)c(C)c23)C1` (racemic) [Example 93] was 16 nM.
The value for `CNC(=O)CNC(=O)c1sc2ncnc(Nc3ccc(F)cc3O[C@@H]3CCC[C@H](OC)C3)c2c1C` (racemic) [Example 95] was 28 nM; that for `CO[C@H]1CCC[C@@H](Oc2cc(F)ccc2Nc2ncnc3sc(C(=O)NCCCN4CCOCC4)c(C)c23)C1` (racemic) [Example 97] was 24 nM.
The value for `CO[C@H]1CCC[C@@H](Oc2cc(F)ccc2Nc2ncnc3sc(C(=O)N[C@H]4CC[C@H](O)CC4)c(C)c23)C1` (racemic) [Example 100] was 34 nM.
Compound `CO[C@H]1CCC[C@@H](Oc2cc(F)ccc2Nc2ncnc3sc(C(=O)NCCO)c(C)c23)C1` (racemic) [Example 101] came in with an IC50 of 21 nM.
The value for `CO[C@H]1CCC[C@@H](Oc2cc(F)ccc2Nc2ncnc3sc(C(=O)NCCN4CCCCC4)c(C)c23)C1` (racemic) [Example 103] was 50 nM.
`CO[C@H]1CCC[C@@H](Oc2cc(F)ccc2Nc2ncnc3sc(C(=O)NCCCO)c(C)c23)C1` (racemic) [Example 105]: it took 24 nM to reach half-maximal inhibition (IC50).
The value for `CO[C@H]1CCC[C@@H](Oc2cc(F)ccc2Nc2ncnc3sc(C(=O)NCCCN4CCCC4)c(C)c23)C1` (racemic) [Example 106] was 22 nM; that for `CCNC(=O)c1sc2ncnc(Nc3ccc(F)cc3O[C@@H]3CCC[C@H](OC)C3)c2c1C` (racemic) [Example 109] was 24 nM.
For `COC(=O)c1sc2ncnc(Nc3cccnc3O[C@@H]3CCC[C@H](OC)C3)c2c1C` (racemic) [Example 110.1, Racemic 4-[2-((cis)-3-Methoxy-cyclohexyloxy)-pyridin-3-ylamino]-5-methyl-thieno[2,3-d]pyrimidine-6-carboxylic acid methylester] the value was 9 nM; for `CO[C@H]1CCC[C@@H](Oc2ncccc2Nc2ncnc3sc(C(=O)NCC#CCN)c(C)c23)C1` (racemic) [Example 112], 13 nM; for `CO[C@H]1CCC[C@@H](Oc2ncccc2Nc2ncnc3sc(C(=O)NCCCCO)c(C)c23)C1` (racemic) [Example 113], 23 nM.
Turning to `CO[C@H]1CCC[C@@H](Oc2ncccc2Nc2ncnc3sc(C(=O)NCc4cnco4)c(C)c23)C1` (racemic) [Example 114], the IC50 was found to be 19 nM. The IC50 values of the last two compounds are within 1.5-fold of each other.
The value for `CNC(=O)CNC(=O)c1sc2ncnc(Nc3cccnc3O[C@@H]3CCC[C@H](OC)C3)c2c1C` (racemic) [Example 116] was 33 nM.
The value for `CO[C@H]1CCC[C@@H](Oc2ncccc2Nc2ncnc3sc(C(=O)NCCCN4CCOCC4)c(C)c23)C1` (racemic) [Example 118] was 22 nM; that for `CO[C@H]1CCC[C@@H](Oc2ncccc2Nc2ncnc3sc(C(=O)N[C@H]4CC[C@H](O)CC4)c(C)c23)C1` (racemic) [Example 121] was 41 nM; that for `CO[C@H]1CCC[C@@H](Oc2ncccc2Nc2ncnc3sc(C(=O)NCCO)c(C)c23)C1` (racemic) [Example 122] was 18 nM.
The value for `CO[C@H]1CCC[C@@H](Oc2ncccc2Nc2ncnc3sc(C(=O)NCCN4CCCCC4)c(C)c23)C1` (racemic) [Example 124] was 36 nM.
`CO[C@H]1CCC[C@@H](Oc2ncccc2Nc2ncnc3sc(C(=O)NCCCN4CCCC4)c(C)c23)C1` (racemic) [Example 127]: 16 nM corresponded to half-maximal inhibition (IC50).
The value for `CO[C@H]1CCC[C@@H](Oc2ncccc2Nc2ncnc3sc(C(=O)NCc4cn(C)cn4)c(C)c23)C1` (racemic) [Example 128] was 19 nM; that for `CCNC(=O)c1sc2ncnc(Nc3cccnc3O[C@@H]3CCC[C@H](OC)C3)c2c1C` (racemic) [Example 130] was 24 nM.
`CO[C@@H]1CCC[C@@H](Oc2ncccc2Nc2ncnc3sc(C(N)=O)c(C)c23)C1` (racemic) [Example 131, Racemic 4-[2-((trans)-3-Methoxy-cyclohexyloxy)-pyridin-3-ylamino]-5-methyl-thieno[2,3-d]pyrimidine-6-carboxylic acid amide] returned an IC50 of 18 nM.
For `CO[C@@H]1CCC[C@@H](Oc2ncccc2Nc2ncnc3sc(C(=O)NCC#CCN)c(C)c23)C1` (racemic) [Example 133] the value was 53 nM; for `CO[C@@H]1CCC[C@@H](Oc2ncccc2Nc2ncnc3sc(C(=O)NCCCCO)c(C)c23)C1` (racemic) [Example 134], 86 nM; for `CO[C@@H]1CCC[C@@H](Oc2ncccc2Nc2ncnc3sc(C(=O)NCc4cnco4)c(C)c23)C1` (racemic) [Example 135], 65 nM.
For `CO[C@@H]1CCC[C@@H](Oc2ncccc2Nc2ncnc3sc(C(=O)NCC#N)c(C)c23)C1` (racemic) [Example 136] the value was 44 nM; for `CNC(=O)CNC(=O)c1sc2ncnc(Nc3cccnc3O[C@@H]3CCC[C@@H](OC)C3)c2c1C` (racemic) [Example 137], 105 nM.
The value for `CO[C@@H]1CCC[C@@H](Oc2ncccc2Nc2ncnc3sc(C(=O)NCC#CCN(C)C)c(C)c23)C1` (racemic) [Example 138] was 48 nM; that for `CO[C@@H]1CCC[C@@H](Oc2ncccc2Nc2ncnc3sc(C(=O)NCCCN4CCOCC4)c(C)c23)C1` (racemic) [Example 139] was 84 nM; that for `CO[C@@H]1CCC[C@@H](Oc2ncccc2Nc2ncnc3sc(C(=O)N[C@H]4CC[C@H](O)CC4)c(C)c23)C1` (racemic) [Example 142] was 125 nM.
With `CO[C@@H]1CCC[C@@H](Oc2ncccc2Nc2ncnc3sc(C(=O)NC4CCN(C)CC4)c(C)c23)C1` (racemic) [Example 144], the half-inhibitory concentration (IC50) was 89 nM.
The value for `CO[C@@H]1CCC[C@@H](Oc2ncccc2Nc2ncnc3sc(C(=O)NCCN4CCCCC4)c(C)c23)C1` (racemic) [Example 145] was 68 nM.
The value for `CO[C@@H]1CCC[C@@H](Oc2ncccc2Nc2ncnc3sc(C(=O)NCCCO)c(C)c23)C1` (racemic) [Example 147] was 83 nM.
